Patent US20180043011A1, “PI3-Kinase Inhibition and LAG-3 Checkpoint blockade as a Combination Therapy for Cancer” (Wisconsin Alumni Research Foundation, priority 2016, published 2018)

Legend:
[1] = test system: activated (CD137+) CD8+ T cells; test: In vitro stimulation of splenocytes, surface expression of LAG-3 and PD1 by flow cytometry; assay type: cell-based, mouse; details: 200nM BEZ235; WT (CD3/28 beads) or OT1 (SIINFEKL peptide) splenocytes; 24 h
Protocol: FIG. 1A depicts WT (top) and OT1 (bottom) splenocytes stimulated with either CD3/28 beads or SIINFEKL peptide respectively, with/without PI3K inhibition and assayed for surface expression of LAG-3 (left graphs) or PD1 (right graphs) on activated (CD137+) CD8+ T cells at 24 h. FIG. 1B depicts a representative OT1 sample showing levels of LAG-3 and PD1 on CD8+ T cells upon in vitro SIINFEKL stimulation in the presence of a PI3K inhibitor. (* denotes a p-value <0.05, two way Mann-Whitney test) FIG. 1C depicts WT splenocytes stimulated with CD3/28 beads with/without PI3K inhibition and assayed for intracellular expression of cytokines in CD8+ T cells.
Splenocytes from either OT-1 or wild type (WT) C57BL/6J mice were cultured in RPMI-1640, 10% FCS, 200U/mL Pen/Strep, 1% NaPyr, 1% HEPES, 50 μM β-MeOH and 2 μg/mL SIINFEKL peptide (OT1 cells) or CD3 and CD28 antibody coated latex beads (WT cells) with or without 200nM BEZ235 PI3-Kinase inhibitor (Selleckchem, Catalog No. S1009).
(* denotes a p-value <0.05, two way Mann-Whitney test).

[2] = test system: SSX2 mouse sarcoma cell line; test: Cancer cell growth in vitro (images after three days); assay type: cell-based; details: 200 nM BEZ235; three days after plating; 100,000 cells per flask
Protocol: An SSX2 mouse sarcoma cell line (described in Rekoske et al., Cancer Immunol Res August 2015 3; 946) was split and 100,000 cells plated into each of two […] flasks. Cells were grown in RPMI-1640, 5% FCS, 200 U/mL Pen/Strep, 50 μM β-MeOH with or without 200 nM BEZ235 PI3-Kinase inhibitor. FIG. 2 left, mouse sarcoma cell line grown in normal media three days after plating; shown at […] and 10× and right, sarcoma cells from the same split plated with the same number of cells/cm^2 and grown in media containing the pan-PI3K inhibitor BEZ235.

Compound: Cn1c(=O)n(-c2ccc(C(C)(C)C#N)cc2)c2c3cc(-c4cnc5ccccc5c4)ccc3ncc21 [BEZ235]
- surface expression of LAG-3 on CD8+ T cells [1]: increased expression of LAG-3
- surface expression of PD-1 on CD8+ T cells [1]: reduced expression of PD-1
- cell growth [2]: inhibited cell growth
